Data published in article PMC4105021 (ChemMedChem, 2014).

Legend:
[1] = tested on: human peripheral blood mononuclear cells; format: cell-based; conditions: human PBMCs and whole human blood, Fig. 6
[2] = tested on: human TLR2, TLR3, TLR4, TLR5, TLR7, TLR9, TLR10, Nod1 and Nod2; test: counter-screen in reporter cell lines specific for other human TLRs and Nods; format: cell-based

**Q.** CCCCCc1cc2ccccc2nc1N [Compound 14b, 3-pentylquinolin-2-amine] was tested. Which cytokine/chemokine induction profile [1] did it give?
**A.** Its cytokine/chemokine induction profile is “induction of a specific set of chemokines and proinflammatory cytokines, including interleukins 12 and 18”.

**Q.** With CCCCNc1cc2ccccc2nc1N [Compound 9, N^3-butylquinoline-2,3-diamine] as the compound, how does the specificity in counter-screens [2] read?
**A.** Its specificity in counter-screens is “specific for human TLR8”.

**Q.** CCCCSc1cc2ccccc2nc1N [Compound 12, 3-(butylthio)quinolin-2-amine] was tested. Which specificity in counter-screens [2] did it give?
**A.** The specificity in counter-screens was “specific for human TLR8”.

**Q.** Which specificity in counter-screens [2] does the source give for CCCCOc1cc2ccccc2nc1N [Compound 6, 3-butoxyquinolin-2-amine] here?
**A.** Its specificity in counter-screens is “specific for human TLR8”.
